Earlier results, collected in patent US20100136094A1, “Systems for modulating inflammation” (Searete LLC, a limited liability corporation of the state …, priority 2008, published 2010).

How the values were obtained:
[1] = system: Src family kinase; conditions: Sanjuan et al. 2006
[2] = system: Src family kinases (Src, Lck, Yes, Fyn); conditions: at nanomolar concentrations
[3] = system: Epha1; conditions: at nanomolar concentrations
[4] = system: aldehyde dehydrogenase
[5] = system: proteasomal activity in cultured breast cancer cells; conditions: on binding copper, Chen et al. 2006
[6] = 400 mg infused over one hour, single agent; Looareesuwan et al. 1986
[7] = system: mice; conditions: Nakamura et al. 2007
[8] = target: Toll-like receptor 4 (Homo sapiens, UniProt O00206); conditions: Nakamura et al. 2007
Sequence of Toll-like receptor 4 (O00206 24-839, species assumed): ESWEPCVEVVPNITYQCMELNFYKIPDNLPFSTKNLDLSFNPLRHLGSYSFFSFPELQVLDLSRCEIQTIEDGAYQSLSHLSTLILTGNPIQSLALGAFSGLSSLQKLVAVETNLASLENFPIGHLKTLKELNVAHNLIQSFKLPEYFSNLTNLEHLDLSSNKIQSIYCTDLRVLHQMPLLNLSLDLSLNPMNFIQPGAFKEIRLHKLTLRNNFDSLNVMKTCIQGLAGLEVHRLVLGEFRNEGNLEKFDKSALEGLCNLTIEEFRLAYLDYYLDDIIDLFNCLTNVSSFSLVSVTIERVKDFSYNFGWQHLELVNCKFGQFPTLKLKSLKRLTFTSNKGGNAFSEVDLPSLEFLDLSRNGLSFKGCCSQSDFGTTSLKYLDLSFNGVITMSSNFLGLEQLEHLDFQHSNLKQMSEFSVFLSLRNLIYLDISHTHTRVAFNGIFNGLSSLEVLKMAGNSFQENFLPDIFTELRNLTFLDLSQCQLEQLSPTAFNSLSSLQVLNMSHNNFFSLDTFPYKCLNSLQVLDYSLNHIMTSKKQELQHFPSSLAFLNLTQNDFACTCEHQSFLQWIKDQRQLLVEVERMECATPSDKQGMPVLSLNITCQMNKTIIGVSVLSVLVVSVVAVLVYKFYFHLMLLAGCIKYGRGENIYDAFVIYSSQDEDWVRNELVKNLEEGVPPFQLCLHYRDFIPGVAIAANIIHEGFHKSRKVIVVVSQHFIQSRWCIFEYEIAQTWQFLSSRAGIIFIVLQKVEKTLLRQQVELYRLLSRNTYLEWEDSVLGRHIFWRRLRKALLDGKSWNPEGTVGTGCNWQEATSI

CCN(CC)CCCC(C)Nc1ccnc2cc(Cl)ccc12 (centres unmarked) [Chloroquine]
inhibition of CpG-induced Src family kinase activation, or its dependent cellular responses [1]: does not inhibit

Cc1nc(Nc2ncc(C(=O)Nc3c(C)cccc3Cl)s2)cc(N2CCN(CCO)CC2)n1.O [dasatinib, N-(2-chloro-6-methylphenyl)-2-[[6-[4-(2-hydroxyethyl)-1-piperazinyl]-2-methyl-4-pyrimidinyl]amino]-5-thiazolecarboxamide, monohydrate]
inhibition of Src family kinases (Src, Lck, Yes, Fyn) [2]: inhibits
inhibition of Epha1 [3]: inhibits

CCN(CC)C(=S)SSC(=S)N(CC)CC [Disulfiram, 1-(diethylthiocarbamoyldisulfanyl)-N,N-diethyl-methanethioamide]
inhibition of aldehyde dehydrogenase [4]: inhibits aldehyde dehydrogenase without toxicity
proteasomal activity [5]: inhibits proteasomal activity

CCN(CC)CCCC(C)Nc1ccnc2cc(Cl)ccc12.O=P(O)(O)O.O=P(O)(O)O (centres unmarked) [chloroquine phosphate, 7-chloro-4-[[4-(diethylamino)-1-methylbutyl]amino]quinoline phosphate (1:2)]
tolerability of intravenous infusion [6]: without complication

Cl.Cl.Nc1ccccc1Oc1ccc2c(N)nsc2c1 [Example M62812, 3-amino-6-(2-aminophenoxy)-1,2-benzisothiazole dihydrochloride]
prevention of lethal septic shock [7]: prevents lethal septic shock
inhibition of Toll-like receptor 4 [8]: inhibitor
